Measured values: a melting point compilation (Tetko et al.; mined from patent text by program, amines drawn as free bases though some values may be those of a salt)

Compound | melting point
CS(=O)(=O)c1ccc(C(CC2CCCC2)C(=O)Nc2cnc(C(C#N)=NO)cn2)cc1Cl (centres undefined) | 130 to 133 °C
COc1ccc2c(-c3ccccc3)nc(=NO)c(=O)n(C)c2c1 | 206 to 207 °C
CCCC(CCC)n1c(CC)nc2c1c(=O)n(C)c(=O)n2-c1c(OC)ccnc1C | 124 to 126 °C
CC(C)OC(=O)Cn1c(=O)n(C)c(=O)n(-c2cc(N=c3sc(=S)n4n3CCCCC4)c(F)cc2Cl)c1=O | 108 to 118 °C
O=C(NCc1ccc(Cl)cc1)c1cn(CCN2CCCC2)c2ccc(C#CCO)cc2c1=O | 189 to 192 °C
C=CS(=O)(=O)CCN1CCC(N2N=C(c3ccc(OC)c(OC)c3)[C@H]3CC=CC[C@H]3C2=O)CC1 | 165 to 166 °C
O=[N+]([O-])c1cnc2ccc(-c3ccccc3)cc2c1Cl | 144 to 145 °C
FC(F)(F)Oc1ccc(-c2ccc(CCl)cn2)cc1 | 34 to 36 °C
N#Cc1cnc2cc(I)ccc2c1Cl | 165 to 167 °C
CNc1cccc(S(=O)(=O)c2ccc(N)cc2)c1 | 125 to 126 °C
CCCC(Sc1nc2ccccc2[nH]1)C(=O)Nc1c(SC)cc(C)nc1SC (centres undefined) | 235 to 237 °C
O=C1NC(=O)C2(N1)C(=O)N(Cc1ccc(Br)cc1F)c1c(C(F)(F)F)cccc12 (centres undefined) | 197 to 199 °C
Nc1ccn(C2OC(CO)C(O)C2O[N+](=O)[O-])c(=O)n1 (centres undefined) | 151 to 153 °C
N#Cc1cc(NC(=O)c2sc3ccccc3c2Cl)ccc1N1CCC(N2CCOCC2)CC1 | 227 to 228 °C
O=C(NCCBr)C1=C(C(=O)Nc2ccc(Cl)cc2F)CCCC1 | 165 to 166 °C
COc1cccc2c1Sc1c(OC)cccc1C2(CCOS(C)(=O)=O)CCOS(C)(=O)=O | 176 to 178 °C
O=C(NCC(F)(F)F)C1c2cc(F)ccc2-c2c(CCCCN3CCC(N4C(=O)c5ccccc5C4=O)CC3)cc(F)cc21 (centres undefined) | 186 to 188 °C
CC(=O)Nc1c(Cl)cc(CC(=O)O)cc1Cl | 209 to 211 °C
CC(=O)c1ccc(-c2ccc(OCc3ccc4ccccc4n3)cc2)c([N+](=O)[O-])c1 | 160 to 162 °C
N[C@H]1C[C@H]2[C@H](C(=O)O)[C@H]2[C@]1(N)C(=O)O | > 250 °C
O=C(Nc1ccc(Oc2ccc(C(F)(F)F)cc2)cc1)Nc1nonc1-c1ccc(Cl)cc1 | 208 °C

Compound | melting point
Cc1ccc(C(=O)c2ccccc2Cl)n1N | 84 to 85 °C
CCCCCN(CCC12CC3CC(CC(C3)C1)C2)C(=O)NCCC(C)c1ccncc1 (centres undefined) | 93 to 98 °C
CCCCOC(=O)c1ccc2c(c1)C(=O)NC(C(Cl)(Cl)Cl)O2 (centres undefined) | 134 to 136 °C
O=[N+]([O-])c1ccc2c(c1)CCN(Cc1ncn[nH]1)C2 | 163 to 166 °C
O=[N+]([O-])c1ccccc1Nc1ccccc1O | 67 to 70 °C
CN1C(=O)[C@@H](NC(=O)[C@H](N)Cc2ccccc2)N=C(C2CCCCC2)c2ccccc21 | 75 to 78 °C
COc1ccc2c(c1)C(=O)N(c1ccc3cccnc3c1)C2 | 220 to 223 °C
CC(=O)NC[C@H]1CN(c2ccc(C(=O)c3cnc4ccc(Br)cn34)cc2)C(=O)O1 | 230 to 232 °C
CNCCCn1cc2c(C3C(=O)Nc4ccc(Br)cc43)ncnc2n1 (centres undefined) | 240 to 243 °C
COC(=O)c1ccnc2ccc(C(=O)c3ccc(Cl)cc3)cc12 | 126 °C
CCC1(COC(=O)c2cccc3ccccc23)COC1 | 62 °C
CCCCCS(=O)(=O)NC(=O)/C=C/c1ccc(OCCCOCCOC)cc1Oc1ncc(C(F)(F)F)cc1Cl | 103 to 105 °C
Cc1cc([N+](=O)[O-])sc1C(=O)c1sc(Nc2ccc(S(N)(=O)=O)cc2)nc1N | 268 to 269 °C
CC(C)(C)OC(=O)N[C@@H](CCCCN=C=O)C(=O)N1CC(F)(F)C(F)(F)C1 | 68 to 70 °C
COC(=O)c1ccc2cc(-c3ccccc3)[nH]c2c1 | 208 to 210 °C
COc1cccc(C2(c3cccc(OC)c3)CC2(C)C=O)c1 (centres undefined) | 122 to 123 °C
COc1ccc2c(c1)CCC(c1ccccc1)=C2c1ccc(O)cc1 | 158 to 162 °C
Cc1ccc2c(c1)C(=O)c1ccccc1S2(=O)=O | 179 to 198 °C
COc1ccc(-c2nc(CC(=O)O)c(-c3ccco3)o2)cc1 | 177 to 178 °C
COc1ccc(NS(C)(=O)=O)cc1C(=O)O | 160 to 163 °C
CCOC(=O)C=CC(=O)Nc1ccc(Cl)cc1C(=O)c1ccccc1Cl | 113 to 114 °C

Results, then the molecule that gave them:

melting point | Compound
79 to 82 °C | COC(=O)COc1cccc(C=Cc2nc(-c3ccccc3)c(-c3ccccc3)o2)c1
226 to 230 °C | COc1cc(-c2nc(-c3ccc(N(C)C)cc3)c(C)[nH]2)ccc1OP(=O)(O)O
120 to 125 °C | Cc1ccc(C(N)=S)cc1C
200 °C | O=Cc1csc2ccc(O)cc12
121 to 122 °C | COc1ccc(OC)c2c1CCC(O)(CCO)C2 (centres undefined)
136 to 138 °C | COc1ccc(-c2csc(CO)c2)cc1
86 °C | CCCN=C(Cc1ccccc1)N1CC2C(=O)CCC(c3ccccc3)(c3ccccc3)C2C1 (centres undefined)
90.5 to 91.5 °C | Cc1cc(C(=O)NCCc2ccccc2)n(C)n1
176 to 178 °C | O=C1c2ccc(C#Cc3cccc4ccccc34)cc2C(=O)N1c1ccccc1
133 to 135 °C | CC(C)OC(=O)c1cc(Cl)c(Cl)c(-c2ccc(Cl)cc2)n1
285 to 287 °C | Cc1cccc2c1C1(CCC(=O)NC1=O)CCC2=O (centres undefined)
146 to 147 °C | COc1cc(CCc2ccc(Nc3ccccc3C(=O)O)cc2)cc(OC)c1OC
130 to 133 °C | C#CCN(Cc1ccc2nc(C)[nH]c(=O)c2c1)c1ccc(C(=O)NCC2CCNCC2)cc1
116 to 118 °C | FC(F)(F)c1cccc(-c2nc(-c3ccccn3)no2)c1
> 300 °C | COC1C(CO)OC(n2c3ccc(C=O)cc3c3c4c(c5c6cc(C=O)ccc6[nH]c5c32)C(=O)NC4=O)C(O)C1O (centres undefined)
146 to 149 °C | O=C(NCCO)NC1CCCc2ccccc21 (centres undefined)
153 to 154 °C | CC(C)(C)OC(=O)N1CCc2ccc(NS(C)(=O)=O)cc2CC1
> 300 °C | CC(C)(C)c1cc(-n2nc3ccc(S(=O)(=O)c4ccc5nn(-c6cc(C(C)(C)C)cc(C(C)(C)C)c6O)nc5c4)cc3n2)c(O)c(C(C)(C)C)c1
147 to 148 °C | COc1ccc([N+](=O)[O-])cc1C(O)OC (centres undefined)

melting point | Compound
188 to 190 °C | O=C1C=C(Nc2cccc(F)c2)CCN1
251 to 255 °C | N#Cc1ccc(N2CCN(Cc3cnc4c(c3)NC(=O)[C@@H]3CCCN43)CC2)cc1F
96 to 98 °C | COC1C(=O)NC=C1Cl (centres undefined)
272 to 273 °C | COc1ccc(C2=NN(c3ccc(C(=O)Nc4ccc(-c5ccc(=O)[nH]n5)cc4)cc3)C(=O)[C@H]3CC=CC[C@@H]23)cc1OC (relative stereo)
204 to 206 °C | COCc1nc(N)nc(N)c1-c1ccc(Cl)c(Cl)c1
47 to 49 °C | CCCCCCCCCCCCCCC(CCC(=O)OCc1ccccc1)(C(=O)O)C(=O)O
165 °C | CCCCCCCNC(=O)Nc1ccccc1C(=O)NC1CCCNC1 (centres undefined)
> 300 °C | CS(=O)(=O)C(S(C)(=O)=O)S(=O)(=O)O
126 to 130 °C | COC(=O)c1ncnn1Cc1ccc([N+](=O)[O-])cc1
83 to 84 °C | Nc1c(Cl)cc(C(O)CNCCCCCCSCCc2ccccn2)cc1Cl (centres undefined)
144 to 145 °C | CC1(C)CC(=O)C(S(=O)Cc2ccc(Cl)cc2)=C(O)C1 (centres undefined)
93 to 94 °C | Cc1cc(-c2cccc(C(F)(F)F)c2)c2ncc(C(F)(F)F)nc2c1
79 to 80 °C | CC(=O)COc1cccc2ccc(OC(C)=O)nc12
228 to 230 °C | CCOC(=O)c1cnc2scnn2c1=O
127 to 128 °C | COC(=O)c1c(-c2cccc(F)c2)c2cc(OCc3ccccc3)ccc2c(=O)n1CC(C)C
215 to 218 °C | CCOC(=O)COCCCC(=CC(N)C(=O)O)CP(=O)(O)O (centres undefined)
138 to 140 °C | CS(=O)(=O)N(C(=O)OCc1ccccc1)c1cc(O)ccc1OCc1ccccc1
130 °C | CC(C)(C)C(=O)C(O)NC(=O)c1ccc(Cl)cc1 (centres undefined)
219 to 222 °C | CCCCn1nc2c(N)nc3ncccc3c2c1CC(C)C

melting point | Compound
217 to 218 °C | O=C(O)C1c2ccccc2COc2cc(Br)ccc21 (centres undefined)
107 to 110 °C | C#CCN(Cc1ccc2nc(Cl)c(N)cc2c1)c1ccc(C(=O)N[C@@H](CCC(=O)O)C(=O)O)c(F)c1
104 to 107 °C | Nc1ccccc1-c1nc2ccccc2o1
189 to 191 °C | CC(C)Oc1c(C(=O)Nc2nnn[nH]2)sc2c1CN(C(=O)OC(C)(C)C)CC2
168 to 169 °C | CCCCC(=O)c1c(-c2ccc3c(Cl)c(OCc4nnn[nH]4)ccc3c2)oc2ccccc12
180 to 182 °C | O=C(c1ccc(-c2ccn(C(=O)c3ccc(Cl)cc3Cl)n2)cc1)N1Cc2cccn2Cc2ccccc21
85 to 86 °C | CC1=C(/C=C/C(C)=C/CO)C(C)(C)CC(O)C1=O (centres undefined)
138 to 142 °C | Cc1nc(NCC(C)C)sc1C(=O)c1ccc(Cl)c([N+](=O)[O-])c1
128 to 129 °C | Cc1cccc(OCC(F)(F)F)c1NC(=O)CCl
> 260 °C | Nc1c2c(nc3ccc(Cl)cc13)CCCC2=O
125 °C | O=C(Cl)c1cn(CCCCl)c(=O)c2cc(Cl)ccc12
118 to 120 °C | O=C(NCCCO)c1ccc(O)cc1
156 to 158 °C | CCOC(=O)Cc1ccc(CC(=O)c2c(O)c3cccnc3n(-c3ccccc3)c2=O)cc1
60 °C | CS(=O)(=O)Nc1ccc(-c2cc(-c3c(-c4cccc(Cl)c4)nc4ccccn34)ccn2)cc1
170 to 176 °C | COC(=O)[C@@H]1CN(CCCCN2C(=O)c3cc(Cl)ccc3S2(=O)=O)CC[C@H]1n1c(=O)[nH]c2ccccc21 (relative stereo)
193 °C | CC(O)c1sccc1S(=O)(=O)N(C)c1cccc2cc(-c3nccs3)[nH]c12 (centres undefined)
46 to 47.5 °C | CCCCCCCCCc1cnc(-c2ccc(O)c(F)c2)nc1
100 to 101 °C | COCOc1cc(Cl)ccc1-c1cc(-c2cccc(C(=O)NCCCn3ccnc3)c2)c(C#N)c(NC(=O)c2ccccc2OC)n1
111 to 112 °C | CCN(CC)C(=O)CCc1cc(-c2ccc(Cl)cc2)n(-c2ccc(OC)cc2)n1
